{"source": "patent US20240277682A1", "about": "“PHARMACEUTICAL HYDRONIDONE FORMULATIONS FOR DISEASES” (Gyre Therapeutics, Inc., priority 2021, published 2024)", "key": {"[1]": {"assay": "Safety, tolerability and PK of single doses, 7-day and 4-week multiple oral doses (Example 10)", "assay_type": "in vivo, human", "protocol": "This was a randomized, open-label, study of safety, tolerability and PK of single doses, 7-day, and 4-week multiple oral doses of Hydronidone in healthy Chinese subjects.\nThis study was conducted in three parts. In the first part single escalating doses of Hydronidone of 15 mg, 30 mg, 60 mg, 90 mg, and 120 mg/day were administered to six (6), eight (8), eight (8), six (6), six (6) healthy subjects, respectively, as per the Fibonacci Escalating Method (modified Fibonacci method). […] As no adverse experiences were reported at any dose level, the two highest single dose levels of 90 mg and 120 mg of Hydronidone were selected for the second part of the study, and were administered TID to 6 subjects each, for seven consecutive days. Thus, total daily doses of Hydronidone in these two dose groups were 270 mg and 360 mg, respectively. All subjects completed the seven-day dosing regimen without premature discontinuation. No clinically-significant abnormal changes in vital signs, ECG and laboratory test results of each group of subjects were found. In the third part of the study, six (6) subjects were given oral Hydronidone at a daily dose of 60 mg TID (total daily dose of 180 mg) for four (4) consecutive weeks. All subjects completed the seven-day dosing regimen without premature discontinuation. No clinically-significant abnormal changes in vital signs, ECG and laboratory test results of each group of subjects were found.\nPK assessments were performed in each part of the study. In the single part of the study, the PK parameters also included food effect assessment."}, "liver fibrosis": {"system": "liver fibrosis", "assay": "CCl4-induced liver fibrosis in mice", "assay_type": "in vivo", "protocol": "Hydronidone anti-fibrotic effects were evaluated in several animal models of liver fibrosis, such as human serum albumin (HSA)-induced liver fibrosis in rats, dimethyl nitrosamine (DMN)-induced liver fibrosis in rats, and carbon tetrachloride (CCl4)-induced liver fibrosis in mice. […] In the CCl4-induced liver fibrosis in mice, Hydronidone effects were the most prominent at the doses of 3-10 mg/kg/day, although some effects were also shown at the dose of 1 mg/kg/day. In some embodiments, this dose range corresponds to human equivalent dose (HED) range of 15-50 mg. […] The HED of these rat doses are in the range of 100-2,400 mg which were all tested as safe in Phase I clinical trials of Hydronidone, with the 100 mg dose being […] the maximum daily dose of 360 mg (administered as 120 mg TID) administered to the subjects with liver fibrosis due to chronic Hepatitis B in the ongoing Phase II clinical study of efficacy and safety of Hydronidone in China."}, "[2]": {"assay": "In vitro drug-drug interaction with Entecavir and Lamivudine in human liver microsomes", "method": "Entecavir and Lamivudine, were used concomitantly with Hydronidone, or individually, in the in vitro drug interaction experiments, in respective concentrations of each of 1.5 mM."}, "[3]": {"assay": "Double-blind placebo-controlled tolerability study of single and multiple ascending doses in healthy subjects (Example 6)", "assay_type": "in vivo", "conditions": "for ALT / AST: one subject", "from_the_text": "The main objective of this study was to evaluate the tolerability of single and multiple ascending doses of Hydronidone in healthy subjects to support further Phase 1 studies as well to provide supportive information for dosage regimen in Phase II clinical trials.\nThis was a randomized, double-blind, placebo-controlled, in-patient study of single and multiple escalating doses of Hydronidone in healthy Chinese male and female subjects, 18-45 years of age, satisfying all inclusion and exclusion criteria. Hydronidone 100 mg and 200 mg capsule dosage strengths were used in the study. In every cohort, the subjects were randomly assigned to Hydronidone or placebo at a ratio of 3:1.\nThe single-dose component of the trial included 30 subjects that received 100 mg, 200 mg, 400 mg, 600 mg and 800 mg of Hydronidone, respectively (6 subjects/cohort). The post-dose observations were performed 24 hrs following the dosing. All subjects have completed the trial. […] Mild transient dizziness following administration of the test article was reported in one subject in each of the 800 mg Hydronidone and placebo cohorts. The dizziness resolved on its own, without sequelae. The post-dose values of some of the laboratory parameters were abnormal, both in Hydronidone and placebo groups. However, these changes were not considered clinically significant.\nThe multiple-dose component of the trial included 20 subjects assigned to receive 600 mg (8 subjects) three times per day (TID) (total daily dose of 1800 mg), or 800 mg of Hydronidone (12 subjects) TID (total daily dose of 2400 mg) for ten (10) consecutive days. Due to several cases of AEs of hypertriglyceridemia (4 out of 8 subjects) observed in the Hydronidone 600 mg TID dose group, the subjects (n=8) in the Hydronidone TID 800 mg dose group were divided into two subgroups, each comprising of 4 subjects. […] Due to inadvertent omission of the blood glucose test in the first sub-group (all four subjects) of the Hydronidone 800 mg TID dose group at the final study visit, per Principal Investigator decision, the enrollment was extended to include new four (4) subjects, increasing the total number of subjects in this dose group to 12. The safety evaluations were performed pre-dose, on the Day 5 of dosing, and 24 hr after the last dose of the 10-day dosing period."}, "[4]": {"assay": "Parallel group PK study of multiple ascending oral doses (Example 9)", "assay_type": "in vivo, human", "protocol": "This was randomized, open-label, parallel group PK study of multiple ascending oral doses of Hydronidone in healthy Chinese subjects.\nIn this study, ascending oral doses of Hydronidone of 200 mg, 400 mg, and 600 mg TID, were administered to 27 healthy subjects (15 males and 12 females) divided into 3 groups (9 subjects/group), for four (4) consecutive days. This was an inpatient study. Hydronidone was administered under fasted conditions. Blood and urine samples were collected for PK assessments. The PK assessments were performed upon single (after the first dose) and multiple dosing. Standard safety evaluations were also performed including physical examination, ECG, hematology, serum biochemistry and urinalysis."}, "[5]": {"conditions": "800 mg TID, fifth day of dosing"}, "[6]": {"conditions": "800 mg TID, repeated test on study day 6"}}, "data": [{"smiles": "Cc1ccc(=O)n(-c2ccc(O)cc2)c1", "note": "[Hydronidone, N-(4-hydroxyphenyl)-5-Methyl-2-pyridone]", "values": [{"measurement": "maximum tolerated single oral dose", "setting": "[1]; healthy subjects", "result": 120, "unit": "mg"}, {"measurement": "Tmax", "setting": "[1]; human, in vivo, po, 120 mg", "result": "36 ± 29.4", "unit": "min"}, {"measurement": "QTc interval", "setting": "[1]; in vivo", "result": "no abnormal prolongation of the QTc interval"}, {"measurement": "subjects with increase in T-BIL and D-BIL post-dose values", "setting": "[1]; in vivo", "result": "Three"}, {"measurement": "anti-fibrotic effect (level of fibrosis, hydroxyproline, ALT, AST)", "setting": "liver fibrosis", "result": "potent anti-fibrotic effect"}, {"measurement": "dose at which some effects were also shown", "setting": "liver fibrosis", "result": 1, "unit": "mg/kg/day"}, {"measurement": "doses at which effects were the most prominent", "setting": "liver fibrosis", "result": "3 to 10", "unit": "mg/kg/day"}, {"measurement": "role of liver metabolism as metabolic pathway", "setting": "[2]", "result": "the liver metabolism is not the main Hydronidone metabolic pathway"}, {"measurement": "instances of hypertriglyceridemia", "setting": "[3]; 600 mg TID, 10 days", "result": 3, "unit": "instances"}, {"measurement": "number of AEs reported", "setting": "[3]; 600 mg TID, 10 days", "result": 7, "unit": "AEs"}, {"measurement": "instances of hyperlipidemia", "setting": "[3]; 800 mg TID, 10 days", "result": 3, "unit": "instances"}, {"measurement": "instances of liver dysfunction", "setting": "[3]; 800 mg TID, 10 days", "result": 3, "unit": "instances"}, {"measurement": "number of AEs reported", "setting": "[3]; 800 mg TID, 10 days", "result": 14, "unit": "AEs"}, {"measurement": "deaths and SAEs", "setting": "[3]; multiple-dose component, 600 or 800 mg TID, 10 days", "result": "No deaths nor SAEs were reported"}, {"measurement": "ALT", "setting": "[3]; [5]", "result": 79, "unit": "U/L"}, {"measurement": "AST", "setting": "[3]; [5]", "result": 47, "unit": "U/L"}, {"measurement": "ALT", "setting": "[3]; [6]", "result": 101, "unit": "U/L"}, {"measurement": "AST", "setting": "[3]; [6]", "result": 61, "unit": "U/L"}, {"measurement": "subjects with mild transient dizziness", "setting": "[3]; single dose 800 mg cohort", "result": "one"}, {"measurement": "safety and tolerability", "setting": "[3]; single dose 100, 200, 400, 600, 800 mg, healthy subjects", "result": "safe and well tolerated at all doses tested"}, {"measurement": "deaths and serious adverse events", "setting": "[3]; single-dose component", "result": "No deaths nor serious adverse events (SAEs) were reported"}, {"measurement": "number of adverse events reported", "setting": "[4]; 200 mg TID and 400 mg TID multiple-dose groups, mild", "result": 7, "unit": "adverse events"}, {"measurement": "dose proportionality of exposure", "setting": "[4]; 200-600 mg TID", "result": "increasing with the dose but without strict dose proportionality"}, {"measurement": "deaths and SAEs", "setting": "[4]; 200-600 mg TID, 4 days", "result": "No deaths nor SAEs were reported"}, {"measurement": "safety and tolerability", "setting": "[4]; 200-600 mg TID, 4 days", "result": "safe and well tolerated"}, {"measurement": "exposure by sex", "setting": "[4]; across dose levels", "result": "Male subjects had lower exposures as compared to female subjects"}, {"measurement": "Tmax", "setting": "[4]; both sexes, human, plasma, oral, 200, 400, 600 mg TID, fasted, healthy Chinese subjects", "result": "~60", "unit": "min"}, {"measurement": "accumulation", "setting": "[4]; single vs multiple dosing, TID for 4 days", "result": "no obvious accumulation"}, {"measurement": "plasma level at 36 hrs. post-dose", "setting": "[4]; upon single dosing, parent drug and major metabolites", "result": "undetectable"}]}]}
